Data on one compound can be found in publication PMC10667816, “A Cell‐Penetrant Peptide Disrupting the Transcription Factor CP2c Complexes Induces Cancer‐Specific Synthetic Lethality” (Advanced Science, 2023).

*1 amine or outer side, *2 acyl side, *3 side chain or, on linkers, in order; H or OH if unused. Where a SMILES comes first, the peptide text is derived from it. Side-chain parts run from the residue outwards. The star is where a group is joined. γGlu = O=C(O)[C@H](CCC(=O)[*:2])N[*:1]; Palmitoyl = CCCCCCCCCCCCCCCC(=O)*

One data set deals with ICR mice. The experiment in a line: Repeated toxicity test of ACP52CGK. It is filed as in vivo, mouse. The note with it: 100 mpk intravenously daily for 4 weeks, n = 6/group; brain, heart, liver. Here is the method: To assess the toxicity of ACP52C, twelve 6‐weeks‐old ICR mice (six males and six females) were divided into three groups, each containing two mice: one group received a saline, another received 100 mg kg^−1 of ACP52C, and the third received 1000 mg kg^−1 of ACP52C. For each group, one mouse was intravenously injected once, and the other one was intravenously injected twice with a four‐day interval between injections. At the time of sacrifice, major organs were analyzed by H&E staining. To assess the repeated toxicity of ACP52CGK, twenty‐four 6‐weeks‐old ICR mice (twelve males and twelve females) were used, dividing them into two groups of six mice each: one group received saline, and the other received 100 mg kg^−1 of ACP52CGK. […] Body weight, water and feed consumption were measured every 3 days after injection. […] Major organs were weighed and analyzed by H&E staining. H&E‐stained tissue sections were analyzed and photographed, and the representative histological images were recorded. […]
Repeated toxicity test of ACP52CGK were analyzed in ICR mice by intravenous injection of 100 mpk of ACP52CGK daily for 4 weeks (n = 6/group). A-C) Body weight (A), water consumption (B), and food consumption (C) were measured once every 3 days after injection. D-F) Major organ weight (D), CBC (E), and blood chemistry (F) were measured after sacrifice. Data are expressed as means ± SD in (B-F). […]

The nature of data set [1]: In vivo pharmacokinetics test. The note with it: plasma; male CD‐1 (ICR) mouse, single intravenous 5 mg kg^−1, sampled 0.033–48 h, peripheral blood, noncompartmental analysis (Phoenix WinNonlin 6.3). Here is the method:
A pharmacokinetics study was conducted at WuXiAppTec., Ltd. In this study, male CD‐1 (ICR) mouse was given a single intravenous injection of 5 mg kg^−1 of ACP52CGK. Blood samples were collected prior to dosing on day 0 and at various time points, including 0.033, 0.083, 0.25, 0.5, 1, 2, 6, 12, 24, and 48 h after dosing. The data collected from these samples were used to calculate pharmacokinetic parameters using the IV‐noncompartmental analysis model 201 in Phoenix WinNonlin version 6.3.
Figure S23. Pharmacokinetics analysis of ACP52CGK
A) PK parameters of ACP52CGK in CD-1(ICR) mice, calculated using the noncompartmental analysis
model 201 of Phoenix WinNonlin version 6.3. B) Mean plasma concentration of ACP52CGK at 0.033,

In the case of `CCCCCCCCCCCCCCCC(=O)N[C@@H](CCC(=O)NCCCC[C@H](NC(=O)CNC(=O)CNC(=O)[C@@H]1CCCN1C(=O)[C@H](CCCNC(=N)N)NC(=O)[C@H](CCC(N)=O)NC(=O)[C@@H]1CCCN1C(=O)[C@H](Cc1ccc(O)cc1)NC(=O)[C@H](CC(N)=O)NC(C)=O)C(=O)NCC(=O)NCC(=O)N[C@@H](CS)C(=O)N[C@@H](CCCNC(=N)N)C(=O)NCC(=O)N[C@@H](CC(=O)O)C(=O)N[C@@H](CCCCN)C(=O)NCC(=O)N1CCC[C@H]1C(=O)N[C@@H](CC(=O)O)C(=O)N[C@@H](CS)C(N)=O)C(=O)O` [ACP52CGK] (Ac-NYPQRPGGK([γGlu-Palmitoyl])GGCRGDKGPDC-NH2), the “adverse effects in normal organs” value in the data set with ICR mice is listed as “did not induce any adverse effects”. For the same compound, the half-life (as a rule, the time needed for the level to fall by half in the phase considered) in data set [1] was about 5.26 h.
